molecular target: T1, Androgen Receptor (AR) (Homo sapiens, UniProt P10275, T878A); assay: LNCaP Androgen Receptor Down-regulation Cell Assay (immunofluorescence end point); assay type: cell-based; conditions: LNCaP prostate carcinoma cells, compound incubation 20-22 hours, 50% reduction of the AR signal; read-out: Androgen Receptor Down-regulation Assay (a) IC50/μM
T1 construct: cell based immuno-fluorescence assay using the LNCaP prostate epithelial cell line; endogenous in cells; host or cells: LNCaP clone FGC (ATCC CRL-1740)
T1 sequence (P10275 1-920 T878A): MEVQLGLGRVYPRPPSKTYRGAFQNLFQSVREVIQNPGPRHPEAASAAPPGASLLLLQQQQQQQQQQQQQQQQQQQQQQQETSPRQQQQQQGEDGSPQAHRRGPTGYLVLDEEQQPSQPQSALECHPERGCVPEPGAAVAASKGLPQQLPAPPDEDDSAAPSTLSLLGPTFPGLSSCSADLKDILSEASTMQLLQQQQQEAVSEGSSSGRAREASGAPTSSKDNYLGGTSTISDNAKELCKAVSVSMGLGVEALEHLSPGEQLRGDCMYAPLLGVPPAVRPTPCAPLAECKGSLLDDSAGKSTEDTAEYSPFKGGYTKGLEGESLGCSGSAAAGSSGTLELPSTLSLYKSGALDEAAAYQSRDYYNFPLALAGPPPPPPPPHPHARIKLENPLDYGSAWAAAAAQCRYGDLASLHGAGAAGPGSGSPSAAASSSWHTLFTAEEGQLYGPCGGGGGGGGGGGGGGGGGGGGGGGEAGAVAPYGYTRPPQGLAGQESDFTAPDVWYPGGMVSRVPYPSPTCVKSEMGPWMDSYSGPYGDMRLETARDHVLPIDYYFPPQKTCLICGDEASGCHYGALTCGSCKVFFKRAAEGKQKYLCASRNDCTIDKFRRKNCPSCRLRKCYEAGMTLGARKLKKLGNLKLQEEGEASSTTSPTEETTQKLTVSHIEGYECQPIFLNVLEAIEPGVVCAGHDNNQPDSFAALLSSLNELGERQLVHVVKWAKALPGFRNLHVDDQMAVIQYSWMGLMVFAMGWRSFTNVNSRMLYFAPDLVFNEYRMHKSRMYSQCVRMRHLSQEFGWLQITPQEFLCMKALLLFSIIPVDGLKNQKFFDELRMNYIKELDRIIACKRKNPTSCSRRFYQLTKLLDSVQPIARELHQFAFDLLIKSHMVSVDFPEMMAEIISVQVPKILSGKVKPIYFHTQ
Procedure, shortened: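 LNCaP cells in medium with 5% charcoal-stripped FBS were plated overnight, then treated with a compound dilution series for 20-22 h at 37° C. After fixation, permeabilisation and immunostaining, AR-associated green fluorescence was quantified by laser-scanning microplate cytometry; AR down-regulation expressed as IC50 from fitted dose-response curves.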

| SMILES | DC50 |
| --- | --- |
| COc1ncccc1CN1CCN(c2ccc3nnc(C(F)(F)F)n3n2)CC1 [Example 775] | 6.8 µM |
| Cc1ccc(CN2CCN(c3ccc4nnc(C(F)(F)F)n4n3)CC2)cn1 [Example 776] | 6.9 µM |
| FC(F)(F)c1ncccc1CN1CCN(c2ccc3nnc(C(F)(F)F)n3n2)CC1 [Example 777] | 4.6 µM |
| CS(=O)(=O)c1cc(F)cc(CN2CCN(c3ccc4nnc(C(F)(F)F)n4n3)CC2)c1 [Example 778, 6-[4-[3-fluoro-5-(methylsulfonyl)benzyl]piperazin-1-yl]-3-(trifluoromethyl)[1,2,4]triazolo[4,3-b]pyridazine] | 2.6 µM |
| Fc1cc(CN2CCN(c3ccc4nnc(C(F)F)n4n3)CC2)cc(C(F)F)c1 [Example 784, 3-(difluoromethyl)-6-[4-[3-(difluoromethyl)-5-fluorobenzyl]piperazin-1-yl][1,2,4]triazolo[4,3-b]pyridazine] | 2.2 µM |
| FC(F)(F)c1nnc2ccc(N3CC4CN(Cc5ccccn5)CC4C3)nn12 (stereo not drawn) [Example 786] | 8.4 µM |
| COc1ncccc1CN1CC2CN(c3ccc4nnc(C(F)(F)F)n4n3)CC2C1 (stereo not drawn) [Example 788] | 2.2 µM |
| Fc1cncc(CN2CC3CN(c4ccc5nnc(C(F)(F)F)n5n4)CC3C2)c1 (stereo not drawn) [Example 789] | 2.1 µM |
| FC(F)(F)c1nnc2ccc(N3CC4CN(Cc5cccnc5Cl)CC4C3)nn12 (stereo not drawn) [Example 790] | 2 µM |
| Fc1ncc(Br)cc1CN1CC2CN(c3ccc4nnc(C(F)(F)F)n4n3)CC2C1 (stereo not drawn) [Example 795] | 2.4 µM |
| COc1cncc(CN2CC3CN(c4ccc5nnc(C(F)(F)F)n5n4)CC3C2)c1 (stereo not drawn) [Example 797] | 2.4 µM |
| COc1ccncc1CN1CC2CN(c3ccc4nnc(C(F)(F)F)n4n3)CC2C1 (stereo not drawn) [Example 803] | 7 µM |
| COc1cccc(OC2CCN(c3ccc4nnc(C(F)(F)F)n4c3)CC2)c1 [Example 806, 6-[4-(3-methoxyphenoxy)piperidin-1-yl]-3-(trifluoromethyl)[1,2,4]triazolo[4,3-a]pyridine] | 2.3 µM |
| FC(F)(F)c1nnc2ccc(N3CCN(Cc4c[nH]c5ccccc45)CC3)cn12 [Example 807] | 7.5 µM |
| Fc1cc(Cl)cc(CN2CCN(c3ccc4nnc(C(F)F)n4n3)CC2)c1 [Example 813] | 6.8 µM |
| Fc1ccc(Cl)c(CN2CCN(c3ccc4nnc(C(F)F)n4n3)CC2)c1 [Example 815] | > 17 µM |
| Fc1cc(CN2CCN(c3ccc4nnc(C(F)F)n4n3)CC2)cc(F)c1F [Example 818] | 3.8 µM |
| CS(=O)(=O)c1ccc(F)cc1CN1CCN(c2ccc3nnc(C(F)F)n3n2)CC1 [Example 819] | > 18 µM |
| Fc1ccc(CN2CCN(c3ccc4nnc(C(F)F)n4n3)CC2)c(F)c1F [Example 823] | 4.7 µM |
| C[C@@H]1CN(c2ccc3nnc(C(F)(F)F)n3n2)CCN1Cc1ccncc1 [Example 828, 6-[(3R)-3-methyl-4-(pyridin-4-ylmethyl)piperazin-1-yl]-3-(trifluoromethyl)[1,2,4]triazolo[4,3-b]pyridazine] | 9.5 µM |
| C[C@@H]1CN(c2ccc3nnc(C(F)(F)F)n3n2)CCN1Cc1ccc(Cl)nc1 [Example 833] | > 12 µM |
| C[C@@H]1CN(c2ccc3nnc(C(F)(F)F)n3n2)CCN1Cc1cc(Br)cnc1F [Example 835] | 20 µM |
| N#Cc1ccc(CN2CCN(c3ccc4nnc(C(F)(F)F)n4n3)CC2)cn1 [Example 838, 5-[[4-[3-(trifluoromethyl)[1,2,4]triazolo[4,3-b]pyridazin-6-yl]piperazin-1-yl]methyl]pyridine-2-carbonitrile] | 7.6 µM |
| Fc1ccc(CN2[C@@H]3CC[C@H]2CN(c2ccc4nnc(C(F)(F)F)n4n2)C3)cc1 [Example 839] | 1.1 µM |

Other lines, results leading:

| DC50 | SMILES |
| --- | --- |
| 0.54 µM | Fc1ccc(C(F)F)c(CN2CCN(c3ccc4nnc(C(F)(F)F)n4n3)CC2)c1 [Example 779, 6-[4-[2-(difluoromethyl)-5-fluorobenzyl]piperazin-1-yl]-3-(trifluoromethyl)[1,2,4]triazolo[4,3-b]pyridazine] |
| 0.51 µM | Fc1ccc(C(F)F)c(CN2CCN(c3ccc4nnc(C(F)F)n4n3)CC2)c1 [Example 780, 3-(difluoromethyl)-6-[4-[2-(difluoromethyl)-5-fluorobenzyl]piperazin-1-yl][1,2,4]triazolo[4,3-b]pyridazine] |
| 0.82 µM | Fc1cccc(CN2CCN(c3ccc4nnc(C(F)(F)F)n4n3)CC2)c1C(F)F [Example 781, 6-[4-[2-(difluoromethyl)-3-fluorobenzyl]piperazin-1-yl]-3-(trifluoromethyl)[1,2,4]triazolo[4,3-b]pyridazine] |
| 2 µM | Fc1cccc(CN2CCN(c3ccc4nnc(C(F)F)n4n3)CC2)c1C(F)F [Example 782, 3-(difluoromethyl)-6-[4-[2-(difluoromethyl)-3-fluorobenzyl]piperazin-1-yl][1,2,4]triazolo[4,3-b]pyridazine] |
| 0.84 µM | Fc1cc(CN2CCN(c3ccc4nnc(C(F)(F)F)n4n3)CC2)cc(C(F)F)c1 [Example 783, 6-[4-[3-(difluoromethyl)-5-fluorobenzyl]piperazin-1-yl]-3-(trifluoromethyl)[1,2,4]triazolo[4,3-b]pyridazine] |
| 1.7 µM | Cc1cc(CN2CC3CN(c4ccc5nnc(C(F)(F)F)n5n4)CC3C2)ccn1 (stereo not drawn) [Example 785, 6-[5-[(2-methylpyridin-4-yl)methyl]hexahydropyrrolo[3,4-c]pyrrol-2(1H)-yl]-3-(trifluoromethyl)[1,2,4]triazolo[4,3-b]pyridazine] |
| 0.96 µM | FC(F)(F)c1nnc2ccc(N3CC4CN(Cc5ccc(Cl)nc5)CC4C3)nn12 (stereo not drawn) [Example 791] |
| 1.6 µM | COc1ccc(CN2CC3CN(c4ccc5nnc(C(F)(F)F)n5n4)CC3C2)cn1 (stereo not drawn) [Example 793] |
| 1.1 µM | FC(F)(F)c1nnc2ccc(N3CC4CN(Cc5cncc(Br)c5)CC4C3)nn12 (stereo not drawn) [Example 794] |
| 0.63 µM | FC(F)(F)c1nnc2ccc(N3CC4CN(Cc5cccnc5Br)CC4C3)nn12 (stereo not drawn) [Example 796] |
| 1 µM | FC(F)(F)c1nnc2ccc(N3CC4CN(Cc5ccc(Br)nc5)CC4C3)nn12 (stereo not drawn) [Example 798] |
| 1.6 µM | Cc1ncccc1CN1CC2CN(c3ccc4nnc(C(F)(F)F)n4n3)CC2C1 (stereo not drawn) [Example 799] |
| 1.1 µM | FC(F)(F)c1nnc2ccc(N3CC4CN(Cc5cnccc5Cl)CC4C3)nn12 (stereo not drawn) [Example 800] |
| 1 µM | FC(F)(F)c1ncccc1CN1CC2CN(c3ccc4nnc(C(F)(F)F)n4n3)CC2C1 (stereo not drawn) [Example 805] |
| 1 µM | Fc1ccc2[nH]cc(CN3CCN(c4ccc5nnc(C(F)(F)F)n5c4)CC3)c2c1 [Example 808] |
| 1.9 µM | Fc1ccc(C(F)F)c(CN2CCN(c3ccc4nnc(C(F)(F)F)n4c3)CC2)c1 [Example 810, 6-[4-[2-(difluoromethyl)-5-fluorobenzyl]piperazin-1-yl]-3-(trifluoromethyl)[1,2,4]triazolo[4,3-a]pyridine] |
| 1.7 µM | Fc1cccc(CN2CCN(c3ccc4nnc(C(F)F)n4n3)CC2)c1Cl [Example 822] |
| 1.9 µM | FC(F)c1ccccc1CN1CCN(c2ccc3nnc(C(F)F)n3n2)CC1 [Example 824, 3-(difluoromethyl)-6-[4-[2-(difluoromethyl)benzyl]piperazin-1-yl][1,2,4]triazolo[4,3-b]pyridazine] |
| 1.9 µM | FC(F)c1cccc(CN2CCN(c3ccc4nnc(C(F)F)n4n3)CC2)c1 [Example 825, 3-(difluoromethyl)-6-[4-[3-(difluoromethyl)benzyl]piperazin-1-yl][1,2,4]triazolo[4,3-b]pyridazine] |
| 1.4 µM | FC(F)c1ccc(CN2CCN(c3ccc4nnc(C(F)F)n4n3)CC2)cc1 [Example 826, 3-(difluoromethyl)-6-[4-[4-(difluoromethyl)benzyl]piperazin-1-yl][1,2,4]triazolo[4,3-b]pyridazine] |
| 1 µM | FC(F)c1ccc(CN2CCN(c3ccc4nnc(C(F)(F)F)n4n3)CC2)cc1 [Example 827, 6-[4-[4-(difluoromethyl)benzyl]piperazin-1-yl]-3-(trifluoromethyl)[1,2,4]triazolo[4,3-b]pyridazine] |
| 0.85 µM | C[C@@H]1CN(c2ccc3nnc(C(F)(F)F)n3n2)CCN1Cc1cccc(Br)n1 [Example 830] |
| 1.4 µM | C[C@@H]1CN(c2ccc3nnc(C(F)(F)F)n3n2)CCN1Cc1cccnc1Cl [Example 832] |
| 1.6 µM | N#Cc1ccc(CN2CC3CN(c4ccc5nnc(C(F)(F)F)n5n4)CC3C2)cn1 (stereo not drawn) [Example 837, 5-[[5-[3-(trifluoromethyl)[1,2,4]triazolo[4,3-b]pyridazin-6-yl]hexahydropyrrolo[3,4-c]pyrrol-2(1H)-yl]methyl]pyridine-2-carbonitrile] |
